Measurements as given in paper PMC7934800, “Amino- and polyaminophthalazin-1(2H)-ones: synthesis, coordination properties, and biological activity” (Beilstein Journal of Organic Chemistry, 2021).

How the values were obtained:
[1] = test system: HT-29 (human colon adenocarcinoma cell line); test: MTT cytotoxicity assay, HT-29; assay type: cell-based; conditions: 72 h of cell treatment, HT-29 cells
From the text: (§1) We used the MTT assay to evaluate compounds 5c, 5d, 5f, 5g, 6b, and 6d for their potential activity on cytotoxicity, proliferation and growth of HT-29 (human colon adenocarcinoma cell line), PC-3 (human prostate cancer cell line) and L-929 cells (mouse fibroblast cell line).
(§2) 2.1 Materials and methods:
(§3) Trypsin-EDTA and all media (RPMI 1640, DMEM/F-12K and IMDM) were purchased from Biowest (CytoGen, Poland). Buffered saline (PBS), penicillin-streptomycin solution stabilized, fetal bovine serum (FBS), amino acids solution (MEM), β-mercaptoethanol, dimethyl sulfoxide (DMSO) and MTT 3-(4,5-dimethylthiazol-2-yl)- […] bromide were supplied by Sigma Aldrich Chemical Co (USA).
(§4) All tested cell lines were provided by American Type Culture Collection (ATCC, […]
(§5) Rockville, Manassas,VA, USA). […]
The HT-29 cells were cultured in RPMI-1640 medium containing 2 mM L-glutamine, 10 mM HEPES, 1 mM sodium pyruvate, 4500 mg/L glucose and 1500 mg/L sodium bicarbonate, supplemented with 10% (v/v) fetal bovine serum (FBS), 1% (v/v) penicillin/streptomycin and 1% (v/v) MEM amino acid’s solution. […]
(§6) Cells were maintained in a humidified incubator at 37 °C in a 5% CO2 atmosphere and were regularly screened for mycoplasma contamination. Exponential growth of the cells was controlled by their routine passaging at 90% confluence three times a week using 0.025% trypsin/EDTA.
(§7) 2.3 Cytotoxicity analysis – MTT assay:
(§8) The viability of the cells is associated with their mitochondrial integrity and capacity.
(§9) For that reason, in the MTT microplate assay with 3-(4,5-dimethylthiazol-2-yl)-[…] bromide, first described by Mosmann [ 5], only viable cells with intact metabolism have the ability to incorporate the yellow, water-soluble tetrazolium […]
(§10) dehydrogenase to the violet-blue formazan compound. After dissolving the formazan crystals in an organic solvent, e.g., dimethyl sulfoxide (DMSO), the absorbance of the formazan solution can be measured spectrophotometrically at 570 nm.
(§11) In our research, the MTT assay was used to describe the effect of the tested compounds on cytotoxicity, proliferation and growth of HT-29, PC-3 and L-929 cells.
(§12) Before treatments with the tested compounds the suspension of 8×10^3 cells in 100 µ L medium was transferred to each well of a standard 96-well microplate. Subsequently, the plates were incubated for 24 h (5% CO 2; 37 °C) to ensure cell growth.
(§13) Afterwards, the examined substances at 10 different concentrations were added in 2– […]
(§14) volume of 100 µL medium per well. These concentrations were obtained diluting the compounds first in DMSO and then in medium, which were subsequently used to treat cells cultures in a final DMSO concentration between 0.1 and 1% per well [6] (Da Violante et. al. 2002). As control, the first and last columns were filled only with medium […]
(§15) without studied compounds. Furthermore, blanks (wells without cells) were also […]
(§16) The plates were then incubated for 72 h (37 °C; 5% CO2). Subsequently, 25 µL of fresh MTT solution (5 mg/mL in PBS) was added to each well and the microplates were incubated in a humidified atmosphere for additional 3 h (37 °C; 5% CO2). After the incubation, the MTT solution was replaced by 100 µL of DMSO in order to dissolve formazan complexes and absorbance was immediately measured (microplate reader PowerWaveXS BioTek Instruments, Inc., USA) at 570 nm.
(§17) The IC50 value (concentration of an inhibitor which reduces the absorbance level in the treated cells in comparison to untreated cells by half) representing the cytotoxicity of a substance was evaluated for each studied compound using the GraphPad Prism 7.0 software system (GraphPad Prism Software Inc., USA). To determinate statistical significance between the results one-way variance analysis (ANOVA) was used. The samples homogeneity was tested using Bartlett’s test, followed by Dunnett’s test. All data are presented as the mean of the replicates from three independent experiments, with a significance level of p ≤ 0.05.

[2] = test system: PC-3 (human prostate cancer cell line); test: MTT cytotoxicity assay, PC-3; assay type: cell-based; conditions: 72 h of cell treatment, PC-3 cells
From the text: as §1, §2, §3, §4, §5, §6, §7, §8, §9, §10, §11, §12, §13, §14, §15, §16, §17

[3] = test system: L-929 cells (mouse fibroblast cell line); test: MTT cytotoxicity assay, L-929; assay type: cell-based; conditions: L929, 72 h of cell treatment, L-929 control (non-cancer) cells
From the text: as §1, §2, §3, §4, §5
In addition, the mouse fibroblast cell line
(L-929; ATCC® CCL-1™) was used as a model for non-cancer cells. […]
The L-929 was cultivated in IMDM Medium with 4 mM L-glutamine, 4500 mg/L glucose, and 1500 mg/L sodium bicarbonate supplemented with 10% (v/v) fetal bovine serum (FBS), 1% (v/v) penicillin/streptomycin and 1% (v/v) β-mercaptoethanol.
as §6, §7, §8, §9, §10, §11, §12, §13, §14, §15, §16
as §17, with “with a significance level of p ≤ 0.05.” left out

Cn1nc(N2CCOCC2)c2ccccc2c1=O [5a]
melting point: 135 to 136 °C

Cn1nc(N2CCSCC2)c2ccccc2c1=O [5b]
melting point: 132 to 134 °C

Cn1nc(N2CCCCC2)c2ccccc2c1=O [5c]
IC50 [1]: 36.7 µM | IC50 [2]: 46 µM | IC50 [3]: 27.4 µM | melting point: 92 to 93 °C

Cn1nc(NC2CCCCC2)c2ccccc2c1=O [5d]
IC50 [1]: 29.8 µM | IC50 [2]: 20.1 µM | IC50 [3]: 20.4 µM

CCCCCCNc1nn(C(C)C)c(=O)c2ccccc12 [5e]
melting point: 86 to 87 °C

CC(C)n1nc(NCCc2cccs2)c2ccccc2c1=O [5f]
IC50 [1]: 27.4 µM | IC50 [2]: 27.3 µM | IC50 [3]: 20.1 µM | melting point: 121 to 123 °C

Cn1nc(NCc2ccc(C(F)(F)F)cc2)c2ccccc2c1=O [5g]
IC50 [1]: 31.4 µM | IC50 [2]: 22.4 µM | IC50 [3]: 21.3 µM | melting point: 216 to 218 °C

COc1ccc(CNc2nn(C(C)C)c(=O)c3ccccc23)cc1 [5h]
melting point: 108 to 110 °C

Cn1nc(N(c2ccccc2)c2ccccn2)c2ccccc2c1=O [5i]
melting point: 160 to 163 °C

CCN(CC)CCCC(C)Nc1nn(C)c(=O)c2ccccc12 (centres unmarked) [6b]
IC50 [1]: 51.6 µM | IC50 [2]: 66.3 µM | IC50 [3]: 92.9 µM | melting point: 84 to 86 °C

CNCCNc1nn(C)c(=O)c2ccccc12 [6d]
IC50 [1]: 75.6 µM | IC50 [2]: 83 µM | IC50 [3]: 52.7 µM | melting point: 153 to 155 °C

CCN(CC)CCCC(C)Nc1nn(CCN(C)C)c(=O)c2ccccc12 (centres unmarked) [6e]
melting point: 58 to 60 °C
